Experimental data from article PMC4871484, “Functional Green-Tuned Proteorhodopsin from Modern Stromatolites” (PLoS ONE, 2016).

Molecular target: T1, E17R (E17-PR), green proteorhodopsin (Exiguobacterium sp. S17, UniProt S3FWZ0)
T1 sequence (S3FWZ0 1-248): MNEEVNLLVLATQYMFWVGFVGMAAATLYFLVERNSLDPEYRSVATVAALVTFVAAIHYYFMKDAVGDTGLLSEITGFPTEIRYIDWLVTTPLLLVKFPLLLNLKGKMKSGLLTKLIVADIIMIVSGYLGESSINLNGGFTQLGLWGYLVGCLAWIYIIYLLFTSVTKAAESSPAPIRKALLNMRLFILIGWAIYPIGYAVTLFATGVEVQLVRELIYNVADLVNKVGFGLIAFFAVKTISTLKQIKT
Assay: UV-vis absorption of purified holoprotein; hydroxylamine bleaching to retinal oxime
Assay type: binding
Settings: covalent; Schiff base with lysine; […] HEPES, […] NaCl, […] DDM; room temperature

Q: With `CC1=C(/C=C/C(C)=C/C=C/C(C)=C/C=O)C(C)(C)CCC1` [retinal] as the molecule, how does the “UV-vis absorption of purified holoprotein; hydroxylamine bleaching to retinal ox” value read?
A: Its value is “Expression and purification of E17R yielded after purification and retinal addition a protein with λmax”.
